Measured values published in patent US20090099167A1, “Organic compounds” (Novartis Institutes for Biomedical Research, priority 2004, published 2009).
Like-named read-outs stand apart in the source and are kept apart here.

Tests used:
human EphB4 receptor = target: T1, human EphB4 receptor (Homo sapiens, UniProt P54760); assay: EphB4 kinase assay, GST-EphB, 33P incorporation into poly(Glu,Tyr); assay type: biochemical
T1 construct: made in house; host or cells: Sf9 or Sf21 (baculovirus)
T1 sequence (P54760 566-987): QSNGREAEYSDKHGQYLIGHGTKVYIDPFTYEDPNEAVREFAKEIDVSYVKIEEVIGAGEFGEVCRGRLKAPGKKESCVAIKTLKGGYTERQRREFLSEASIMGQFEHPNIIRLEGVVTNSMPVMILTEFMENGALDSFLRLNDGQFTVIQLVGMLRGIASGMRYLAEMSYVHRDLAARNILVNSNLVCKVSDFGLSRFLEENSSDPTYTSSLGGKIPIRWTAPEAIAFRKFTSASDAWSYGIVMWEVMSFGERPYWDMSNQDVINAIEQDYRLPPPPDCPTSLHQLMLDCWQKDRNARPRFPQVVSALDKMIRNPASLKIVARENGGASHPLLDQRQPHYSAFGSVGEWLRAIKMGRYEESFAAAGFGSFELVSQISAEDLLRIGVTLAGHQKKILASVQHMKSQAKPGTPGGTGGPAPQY
Excerpt: EphB4: Production and measure of enzymatic activity: Generation of Bac-to-Bac™ (Initrogen Life Technologies, Basel, Switzerland) GST-fusion expression vectors: Entire cytoplasmatic coding regions of the EphB-class are amplified by PCR from cDNA libraries derived from human placenta or brain, respectively. Recombinant baculovirus are generated that express the amino acid region 566-987 of the human EphB4 receptor (SwissProt Database, Accession No. P54760). GST sequence is cloned into pFastBac1® vector (Invitrogen Life Technologies, Basel, Switzerland) and PCR amplified. cDNAs encoding EphB4-receptor domains, respectively, are cloned in frame 3′prime to the GST sequence into this modified FastBac1 vector to generate pBac-to-Bac™ donor vectors. Single colonies arising from the transformation are inoculated to give overnight cultures for small scale plasmid preparation. […] By automated sequencing the inserts and approximately 50 bp of the flanking vector sequences are confirmed on both strands. Production of viruses: Viruses for each of the kinases are made according to the protocol supplied by GIBCO if not stated otherwise. In brief, transfer vectors containing the kinase domains are transfected into the DH10Bac cell line (GIBCO) and plated on selective agar plates. Colonies without insertion of the fusion sequence into the viral genome (carried by the bacteria) are blue. Single white colonies are picked and viral DNA (bacmid) isolated from the bacteria by standard plasmid purification procedures. Sf9 cells or Sf21 cells are then transfected in 25 cm2 flasks with the viral DNA using Cellfectin reagent according to the protocol. Purification of GST-tagged kinases: The centrifuged cell lysate is loaded onto a 2 mL glutathione-sepharose column (Pharmacia) and washed three times with 10 mL of 25 mM Tris-HCl, pH 7.5, 2 mM EDTA, 1 mM DTT, 200 mM NaCl. The GST-tagged proteins are then eluted by 10 applications (1 mL each) of 25 mM Tris-HCl, pH 7.5, 10 mM reduced-glutathione, 100 mM NaCl, 1 mM DTT, 10% Glycerol and stored at −70° C. Protein kinase assays: The activities of protein kinases are assayed in the presence or absence of inhibitors, by measuring the incorporation of 33P from [γ33P]ATP into a polymer of glutamic acid and tyrosine (poly(Glu,Tyr)) as a substrate. The kinase assays with purified GST-EphB (30 ng) are carried out for 15-30 min at ambient temperature in a final volume of 30 μL containing 20 mM Tris.HCl, pH 7.5, 10 mM MgCl2, 3-50 mM MnCl2, 0.01 mM Na3VO4, 1% DMSO, 1 mM DTT, 3 μg/mL poly(Glu,Tyr) 4:1 (Sigma; St. Louis, Mo., USA) and 2.0-3.0 μM ATP (γ-[33P]-ATP 0.1 μCi). The assay is terminated by the addition of 20 μL of 125 mM EDTA. Subsequently, 40 μl of the reaction mixture are transferred onto Immobilon-PVDF membrane (Millipore, Bedford, Mass., USA) previously soaked for 5 min with methanol, rinsed with water, then soaked for 5 min with 0.5% H3PO4 and mounted on vacuum manifold with disconnected vacuum source. After spotting all samples, vacuum is connected and each well rinsed with 200 μl 0.5% H3PO4. Membranes are removed and washed 4× on a shaker with 1.0% H3PO4, once with ethanol. Membranes are counted after drying at ambient temperature, mounting in Packard TopCount96-well frame, and addition of 10 μL/well of Microscint™ (Packard). IC50 values are calculated by linear regression analysis of the percentage inhibition of each compound in duplicate, at four concentrations (usually 0.01, 0.1, 1 and 10 μM). One unit of protein kinase activity is defined as 1 nmole of 33P ATP transferred from [γ33P] ATP to the substrate protein per minute per mg of protein at 37° C. Compounds of formula I show EphB4 inhibition down to 10 nM, preferably IC50 values between 0.01-1.0 μM.

[1] = Table 5, read-out: EphB4, IC50 class
[2] = Table 4, read-out: EphB4, activity (IC50 for kinase inhibition)

| IC50 (human EphB4 receptor; [1]) [nM] | melting point [°C] | IC50 (human EphB4 receptor; [2]) [nM] | Structure (SMILES) |
| --- | --- | --- | --- |
| 1000 to 10000 | 195.3 to 197.2 | – | CN1CCN(c2cccc(-c3cnn4c(N)c(-c5cccc(Br)c5)cnc34)c2)CC1 [Example 86, 6-(3-Bromo-phenyl)-3-[3-(4-methyl-piperazin-1-yl)-phenyl]-pyrazolo[1,5-a]pyrimidin-7-ylamine] |
| < 1000 | 224 to 226 | – | Cc1nc2c(-c3cccc(N4CCN(C)CC4)c3)cnn2c(N)c1-c1ccc(F)c(Cl)c1 [Example 82, 6-(3-Chloro-4-fluoro-phenyl)-5-methyl-3-[3-(4-methyl-piperazin-1-yl)-phenyl]pyrazolo[1,5-a]pyrimidin-7-ylamine] |
| < 1000 | – | – | Cc1nc2c(-c3cccc(N4CC[N+](C)([O-])CC4)c3)cnn2c(N)c1-c1ccc(F)cc1 [Example 106, 6-(4-Fluoro-phenyl)-5-methyl-3-[3-(4-methyl-4-oxy-piperazin-1-yl)-phenyl]-pyrazolo[1,5-a]pyrimidin-7-ylamine] |
| < 1000 | – | – | Cc1nc2c(-c3cccc([N+]4([O-])CC[N+](C)([O-])CC4)c3)cnn2c(N)c1-c1ccc(F)cc1 (centres unmarked) [Example 107, 6-(4-Fluoro-phenyl)-5-methyl-3-[3-(4-methyl-1,4-dioxy-piperazin-1-yl)-phenyl]-pyrazolo[1,5-a]pyrimidin-7-ylamine] |
| < 1000 | 289 to 291 | – | Cc1nc2c(-c3ccc(N4CCN(C)CC4)cc3)cnn2c(N)c1-c1ccc(F)cc1 [Example 79, 6-(4-Fluoro-phenyl)-5-methyl-3-[4-(4-methyl-piperazin-1-yl)-phenyl]-pyrazolo[1,5-a]pyrimidin-7-ylamine] |
| < 1000 | 188 to 193 | – | Cc1nc2c(-c3cccc(N4CCC(N5CCCC5)CC4)c3)cnn2c(N)c1-c1cccc(Cl)c1 [Example 102, 6-(3-Chloro-phenyl)-5-methyl-3-[3-(4-pyrrolidin-1-yl-piperidin-1-yl)-phenyl]-pyrazolo[1,5-a]pyrimidin-7-ylamine] |
| < 1000 | 228 to 230 | – | COc1ccc(-c2cnn3c(N)c(-c4cccc(Cl)c4)c(CF)nc23)cc1OC [Example 92, 6-(3-Chloro-phenyl)-3-(3,4-dimethoxy-phenyl)-5-fluoromethyl-pyrazolo[1,5-a]pyrimidin-7-ylamine] |
| < 1000 | 224 to 227 | – | COc1ccc(-c2cnn3c(N)c(-c4ccc(F)c(Cl)c4)c(C)nc23)cc1 [Example 95, 6-(3-Chloro-4-fluoro-phenyl)-3-(4-methoxy-phenyl)-5-methyl-pyrazolo[1,5-a]pyrimidin-7-ylamine] |
| 1000 to 10000 | 170 to 171 | – | CN1CCN(c2cccc(-c3cnn4c(N)c(Cc5cccc(Br)c5)cnc34)c2)CC1 [Example 85, 6-(3-Bromo-benzyl)-3-[3-(4-methyl-piperazin-1-yl)-phenyl]pyrazolo[1,5-a]pyrimidin-7-ylamine] |
| < 1000 | 204 to 206 | – | Cc1nc2c(-c3cccc(N4CCN(C)CC4)c3)cnn2c(N)c1-c1ccc(F)cc1 [Example 80, 6-(4-Fluoro-phenyl)-5-methyl-3-[3-(4-methyl-piperazin-1-yl)-phenyl]-pyrazolo[1,5-a]pyrimidin-7-ylamine] |
| < 1000 | 217 to 220 | – | COc1cc(N2CCN(C)CC2)ccc1-c1cnn2c(N)c(-c3cccc(O)c3)cnc12 [Example 76, 3-{7-Amino-3-[2-methoxy-4-(4-methyl-piperazin-1-yl)-phenyl]-pyrazolo[1,5-a]pyrimidin-6-yl}-phenol] |
| < 1000 | 243 to 244 | – | COc1ccc(-c2cnn3c(N)c(-c4ccc(F)cc4)c(C)nc23)cc1 [Example 96, 6-(4-Fluoro-phenyl)-3-(4-methoxy-phenyl)-5-methyl-pyrazolo[1,5-a]pyrimidin-7-ylamine] |
| – | 165 to 167 | – | Cc1nc2c(-c3cccc(N4CCOCC4)c3)cnn2c(N)c1-c1cccc(Cl)c1 [Example 87, 6-(3-Chloro-phenyl)-5-methyl-3-(3-morpholin-4-yl-phenyl)-pyrazolo[1,5-a]pyrimidin-7-ylamine] |
| – | – | < 10000 | COc1ccccc1-c1cnn2c(N)c(-c3cccc(O)c3)cnc12 [Example 48, 3-[7-Amino-3-(2-methoxy-phenyl)-pyrazolo[1,5-a]pyrimidin-6-yl]-phenol] |
| < 1000 | 171 to 172 | – | COc1ccc(-c2cnn3c(N)c(-c4cccc(Cl)c4)c(C)nc23)cc1 [Example 88, 6-(3-Chloro-phenyl)-3-(4-methoxy-phenyl)-5-methyl-pyrazolo[1,5-a]pyrimidin-7-ylamine] |
| < 1000 | 215 to 217 | – | COc1cc(N2CCN(C)CC2)ccc1-c1cnn2c(N)c(-c3cccc(Cl)c3)c(C)nc12 [Example 75, 6-(3-Chloro-phenyl)-3-[2-methoxy-4-(4-methyl-piperazin-1-yl)-phenyl]-5-methyl-pyrazolo[1,5-a]pyrimidin-7-ylamine] |
| < 1000 | 235 to 238 | – | COc1ccc(-c2cnn3c(N)c(-c4ccc(F)c(Cl)c4)c(C)nc23)cc1OC [Example 94, 6-(3-Chloro-4-fluoro-phenyl)-3-(3,4-dimethoxy-phenyl)-5-methyl-pyrazolo[1,5-a]pyrimidin-7-ylamine] |
| – | – | < 10000 | COc1cccc(-c2cnn3c(N)c(-c4cccc(O)c4)cnc23)c1 [Example 60, 3-[7-Amino-3-(3-methoxy-phenyl)-pyrazolo[1,5-a]pyrimidin-6-yl]-phenol] |
| < 1000 | 165 to 167 | – | Cc1nc2c(-c3cccc(N4C[C@@H](C)O[C@@H](C)C4)c3)cnn2c(N)c1-c1cccc(Cl)c1 [Example 89, 6-(3-Chloro-phenyl)-3-[3-((2R,6S)-2,6-dimethyl-morpholin-4-yl)-phenyl]-5-methyl-pyrazolo[1,5-a]pyrimidin-7-ylamine] |
| – | – | < 10000 | Nc1c(-c2cccc(O)c2)cnc2c(-c3cccnc3)cnn12 [Example 46, 3-[7-Amino-3-pyridin-3-yl-pyrazolo[1,5-a]pyrimidin-6-yl]-phenol] |
| < 1000 | 108 to 116 | – | Cc1nc2c(-c3cccc(N4CCN(CCO)CC4)c3)cnn2c(N)c1-c1cccc(Cl)c1 [Example 90, 2-(4-{3-[7-Amino-6-(3-chloro-phenyl)-5-methyl-pyrazolo[1,5-a]pyrimidin-3-yl]-phenyl}-piperazin-1-yl)-ethanol] |
| – | – | < 10000 | CN1CCN(c2ccc(-c3cnn4c(N)c(-c5cccc(O)c5)cnc34)cc2)CC1 [Example 1, 3-{7-Amino-3-[4-(4-methyl-piperazin-1-yl)-phenyl]-pyrazolo[1,5-a]pyrimidin-6-yl}-phenol] |
| – | – | < 10000 | CN1CCN(c2cccc(-c3cnn4c(N)c(-c5cccc(O)c5)cnc34)c2)CC1 [Example 29, 3-{7-Amino-3-[3-(4-methyl-piperazin-1-yl)-phenyl]-pyrazolo[1,5-a]pyrimidin-6-yl}-phenol] |
